According to patent US20240299593A1, “SYSTEMS AND METHODS FOR GENERATION OF HYPERPOLARIZED MATERIALS” (NVISION IMAGING TECHNOLOGIES GMBH, priority 2021, published 2024):
Structures can show the parent of a compound that is named as a salt. Where two headings read alike, the source gives them in different places.

Tests used:
[1] = ICH toxicity limits, cited from earlier work; for Limits: residual solvent concentration in carrier; for Permissible Daily Exposure: residual solvent
[2] = SABRE catalyst in acetone extraction study (proton NMR of both phases); assay type: physicochemical; settings: 1 ml Acetone-d6, 6 ml MTBE, 1 ml D2O
[3] = assay type: physicochemical; settings: for extraction efficiency (output/input acetone concentration in water): organic wash:aqueous 4:1; for extraction efficiency, comparison in words: with and without pyruvate in solution
[4] = Liquid-liquid purification system, Example 1 (samples of phases analyzed)
Protocol: A system was prepared comprising a first vessel, a second vessel fluidly connected to the first vessel, and a third vessel fluidly connected to the second vessel. The vessels and the fluid path were covered by a defined magnetic field provided by solenoids to prevent undesired hyperpolarisation loss during the processing of a solution through the system.
The mixture was bubbled with nitrogen gas, and 1.0 mL of base (400 mM NaOD in D2O) was injected into Vessel 1 to cleave the pyruvate ester into sodium pyruvate and the corresponding unbonded sidearm.
The solution in Vessel 1 was then subjected to a first washing step. 20 mL of organic washing solvent (e.g., diethyl ether or tert-butyl methyl ether) were injected into the solution, and then agitated using nitrogen gas bubbling. The mixture was then allowed to settle for about 10 seconds until a clear phase separation between the aqueous phase (lower phase) and the organic phase (upper phase) had formed.
The aqueous phase from Vessel 1 was pumped into Vessel 2, which had been prefilled with 20 mL of the same organic washing solvent (e.g., diethyl ether or tert-butyl methyl ether). The mixture was again agitated using nitrogen gas bubbling, and allowed to settle for about 10 seconds until a clear phase separation between the aqueous phase (lower phase) and the organic phase (upper phase) had formed. […]

Row | Molecule | Limits [1] [ppm] | Permissible Daily Exposure [1] [mg/day] | also measured
1 | CCOC=O [Ethyl formate] | 5000 | 50 | 
2 | C[S+](C)[O-] [Dimethyl sulfoxide] | 5000 | 50 | 
3 | C1CCCCC1 [Cyclohexane] | 3880 | 38.8 | 
4 | ClC(Cl)(Cl)Cl [Carbon tetrachloride] | 4 |  | 
5 | CCCOC(C)=O [Propyl acetate] | 5000 | 50 | 
6 | ClC=C(Cl)Cl [1,1,2-Trichloroethene] | 80 | 0.8 | 
7 | CCCCOC(C)=O [Butyl acetate] | 5000 | 50 | 
8 | IrIMes(COD) PF6 |  |  | concentration in the aqueous phase after washing [2]: lower in the aqueous phase after washing; observability in NMR spectrum of the phases [2]: observable only in one of the phases and not in the other
9 | COC(C)=O [Methyl acetate] | 5000 | 50 | 
10 | CC(=O)O [Acetic acid] | 5000 |  | 
11 | CCOCC [Diethyl ether] |  |  | extraction efficiency (output/input acetone concentration in water) ([3]; 9000 mM acetone, No Pyruvate): 0.29; extraction efficiency, comparison in words [3]: effective extraction efficiency
12 | CCCCCC [Hexane] | 290 | 2.9 | 
13 | CN1CCCC1=O [N-Methylpyrrolidone] | 530 | 15.3 | 
14 | CC(=O)CC(C)C [Methylisobutyl ketone] | 5000 | 50 | 
15 | COc1ccccc1 [Anisole] | 5000 | 50 | 
16 | CCCCCCC [Heptane] | 5000 | 50 | 
17 | COC(C)(C)C [tert-Butylmethyl ether] | 5000 | 50 | extraction efficiency (output/input acetone concentration in water) ([3]; 2000 mM acetone, No Pyruvate): 0.33; extraction efficiency (output/input acetone concentration in water) ([3]; 2000 mM acetone, With Pyruvate): 0.27; extraction efficiency (output/input acetone concentration in water) ([3]; 9000 mM acetone, No Pyruvate): 0.24; extraction efficiency (output/input acetone concentration in water) ([3]; 9000 mM acetone, With Pyruvate): 0.23; extraction efficiency, comparison in words [3]: effective extraction efficiency

Row | Molecule | Limits [1] [ppm] | Permissible Daily Exposure [1] [mg/day] | also measured
18 | CCCCCO [1-Pentanol] | 5000 | 50 | 
19 | ClCCl [Dichloromethane] | 600 | 6.0 | extraction efficiency (output/input acetone concentration in water) ([3]; 2000 mM acetone, With Pyruvate): 0.04; extraction efficiency (output/input acetone concentration in water) ([3]; 9000 mM acetone, No Pyruvate): 0.07; extraction efficiency (output/input acetone concentration in water) ([3]; 9000 mM acetone, With Pyruvate): 0.06; extraction efficiency, comparison in words [3]: best extraction efficiency
20 | C=C(Cl)Cl [1,1-Dichloroethene] | 8 |  | 
21 | CC1CCCCC1 [Methylcyclohexane] | 1180 | 11.8 | 
22 | CC#N [Acetonitrile] | 410 | 4.1 | 
23 | NC=O [Formamide] | 220 | 2.2 | 
24 | CCCCC(C)=O [Methylbutyl ketone] | 50 | 0.5 | 
25 | CC(Cl)(Cl)Cl [1,1,1-Trichloroethane] | 1500 |  | 
26 | c1ccc2c(c1)CCCC2 [Tetralin] | 100 | 1.0 | 
27 | Xylene | 2170 | 21.7 | 
28 | CC(=O)C(=O)[O-].[Na+] [sodium pyruvate] |  |  | pH ([4]; Vessel 1, after hydrolysis and phosphate buffer, acetone/D2O): 6-9; pH ([4]; Vessel 3, final samples): 6-9
29 | CCOCCO [2-Ethoxyethanol] | 160 | 1.6 | 
30 | CC(C)=O [Acetone] | 5000 | 50 | concentration in the aqueous phase after washing [2]: lower in the aqueous phase after washing
31 | COCCOC [1,2-Dimethoxyethane] | 100 | 1.0 | 
32 | ClCCCl [1,2-Dichloroethane] | 5 |  | 
33 | CCO [Ethanol] | 5000 | 50 | 
34 | CN(C)C=O [N,N-Dimethylformamide] | 880 |  | 
